Experiments:
[1] = target: T1, PIK3CA (Homo sapiens, UniProt P42336); assay: In vitro ELISA target engagement assay for PIK3CA in Jurkat cellular lysate (competition with PIK3CA Biotin Probe); assay type: binding; details: 1 hour at rt, then 500 nM PIK3CA Biotin Probe, read-out: Elisa Target Engagement Assay (TE50)
T1 construct: endogenous in cells; host or cells: Jurkat cell lysate
Summary of the method: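 Jurkat lysate from sonicated frozen cells was preincubated 1 h at rt with serially diluted compound up to 200 μM, then labelled 1 h at rt with PIK3CA biotin probe at 500 nM final. Probe-bound PIK3CA was captured on antibody-coated plates and detected with Neutravidin-HRP luminescence; TE50 derived from the dose response.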

[2] = system: pAKT(S473) in H358 cell line; assay: In vitro Phospho-AKT(S473) HTRF analysis in H358 cells; assay type: cell-based; details: Homo sapiens, NCI-H358, 0.5 h; for IC50: H358 cells, 30 minutes at 37° C.; for Emax: read-out: H358 pAKT Imax % control
Description: Example 5. In Vitro Phosgho-AKT(S473) Analysis
Functional activity of the compounds to inhibit pAKT were assessed in FaDu or H358 cell lines as indicated below.
• Complete Media • FBS, Corning catalog #35-010-CV • Anti-Anti, Gibco catalog #15240-062 • 96 well plate, Corning catalog #3610 • TrypLE, Gibco catalog #12604013 • Phospho-AKT(S473) HTRF kit, Cisbio catalog #64AKSPET
Cells were detached from the tissue culture flask with TrypLE. The cells were pelleted at 500×g for 5 min, TrypLe was removed and then resuspended in the necessary volume of media+1% FBS to give the appropriate cell density (17,500 cells/mL for FaDu; 20,000 cells/mL for H358). 100 μL of cell suspension/well was dispensed into the 96-well plate while keeping the outer wells of the plate free of cells and filled with PBS to prevent evaporation of interior wells. The plate was incubated at 37° C. and allowed to adhere overnight. The cells were treated with a dose response of compound and incubated at 37° C. for 30 minutes. The cells were then processed and pAKT(S473) levels were assessed following the specifications of the Cisbio HTRF kit.

[3] = target: T2, PIK3CA_C242 (Homo sapiens, UniProt P42336); assay: Proteomic TE50 (IA-DTB / TMT mass spectrometry) in Jurkat cell lysate; assay type: binding; details: 1 hour at rt, 7-point dose response
T2 construct: endogenous in cells; host or cells: Jurkat cell lysate
Summary of the method: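 Jurkat lysate (500 μg) treated with compound (7-point, 1:5 dilutions) for 1 h at rt, then labelled with 200 μM IA-DTB for 1 h. After digestion and streptavidin enrichment, the C242 peptide was quantified by targeted MS3 TMT. TE50 was derived from reporter-ion S/N dose-response curves.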

[4] = system: pAKT(S473) in FaDu cell line; assay: In vitro Phospho-AKT(S473) HTRF analysis in FaDu cells; assay type: cell-based; details: Homo sapiens, 0.5 h; for IC50: FaDu cells, 30 minutes at 37° C.; for Emax: FaDu, read-out: FaDu pAKT Imax % control
Summary of the method: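 FaDu or H358 cells were plated overnight in medium with 1% FBS, then exposed to a compound dose response for 30 minutes at 37° C. Phospho-AKT(S473) levels were measured by HTRF.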

T2 sequence (P42336 whole entry): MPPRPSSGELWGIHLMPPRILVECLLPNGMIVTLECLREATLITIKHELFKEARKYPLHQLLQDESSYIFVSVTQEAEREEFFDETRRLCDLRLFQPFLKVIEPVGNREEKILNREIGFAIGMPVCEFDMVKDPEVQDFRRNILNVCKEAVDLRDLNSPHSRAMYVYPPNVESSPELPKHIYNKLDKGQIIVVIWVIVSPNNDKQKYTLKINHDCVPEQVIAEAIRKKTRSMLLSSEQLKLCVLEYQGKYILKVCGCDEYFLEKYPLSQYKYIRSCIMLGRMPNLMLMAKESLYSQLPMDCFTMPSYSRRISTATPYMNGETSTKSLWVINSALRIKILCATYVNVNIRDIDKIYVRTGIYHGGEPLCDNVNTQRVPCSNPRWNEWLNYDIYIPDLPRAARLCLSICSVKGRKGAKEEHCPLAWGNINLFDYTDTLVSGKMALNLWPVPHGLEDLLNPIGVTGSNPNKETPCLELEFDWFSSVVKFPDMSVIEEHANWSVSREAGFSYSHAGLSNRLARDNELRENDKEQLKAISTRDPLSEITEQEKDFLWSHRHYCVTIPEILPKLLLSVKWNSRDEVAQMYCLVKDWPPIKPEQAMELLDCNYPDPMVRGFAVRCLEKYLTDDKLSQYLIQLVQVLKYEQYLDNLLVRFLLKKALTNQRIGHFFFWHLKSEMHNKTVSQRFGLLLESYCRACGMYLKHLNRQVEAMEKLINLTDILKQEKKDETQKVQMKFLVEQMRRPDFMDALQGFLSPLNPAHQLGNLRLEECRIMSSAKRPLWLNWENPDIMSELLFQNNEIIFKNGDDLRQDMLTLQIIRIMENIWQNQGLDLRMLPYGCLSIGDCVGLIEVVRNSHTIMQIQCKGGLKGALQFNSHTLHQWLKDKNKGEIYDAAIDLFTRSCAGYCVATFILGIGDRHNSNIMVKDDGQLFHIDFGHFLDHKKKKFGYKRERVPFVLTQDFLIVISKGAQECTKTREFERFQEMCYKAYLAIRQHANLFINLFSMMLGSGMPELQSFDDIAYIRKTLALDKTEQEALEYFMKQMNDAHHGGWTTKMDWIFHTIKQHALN
T2 sequence (P27986 whole entry partner): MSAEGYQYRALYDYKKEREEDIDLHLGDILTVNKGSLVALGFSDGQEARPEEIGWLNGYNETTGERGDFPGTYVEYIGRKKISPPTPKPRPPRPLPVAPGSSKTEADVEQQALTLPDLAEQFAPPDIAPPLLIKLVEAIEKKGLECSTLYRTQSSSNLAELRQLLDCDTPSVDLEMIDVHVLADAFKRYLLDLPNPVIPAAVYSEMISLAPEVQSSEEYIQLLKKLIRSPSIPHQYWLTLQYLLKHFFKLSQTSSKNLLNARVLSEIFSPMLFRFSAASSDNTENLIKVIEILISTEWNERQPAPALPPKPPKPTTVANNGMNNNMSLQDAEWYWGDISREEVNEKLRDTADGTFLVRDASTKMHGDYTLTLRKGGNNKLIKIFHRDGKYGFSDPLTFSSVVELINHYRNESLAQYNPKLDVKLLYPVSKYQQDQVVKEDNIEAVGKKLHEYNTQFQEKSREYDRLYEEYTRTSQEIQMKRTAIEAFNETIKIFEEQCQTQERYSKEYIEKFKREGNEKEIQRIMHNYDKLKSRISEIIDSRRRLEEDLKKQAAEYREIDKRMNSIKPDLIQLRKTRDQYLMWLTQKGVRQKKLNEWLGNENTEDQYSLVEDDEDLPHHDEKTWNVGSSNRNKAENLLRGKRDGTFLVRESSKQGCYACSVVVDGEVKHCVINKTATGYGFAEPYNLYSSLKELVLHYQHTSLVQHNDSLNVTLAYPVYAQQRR
T1 sequence (P42336 whole entry): as the sequence (P42336 whole entry) above
T1 sequence (P27986 whole entry partner): as the sequence (P27986 whole entry partner) above

Compound | IC50 [1] [nM] | IC50 [2] [nM] | IC50 [3] [nM] | IC50 [4] [nM] | Emax [2] [%] | Emax [4] [%]
C[C@H](/C=C\S(C)(=O)=O)NC(=O)C1(F)CCN(C(=O)[C@H]2CCC(C)(C)C[C@@H]2c2ccccc2Cl)CC1 (racemic) [Compound 255, 1-((1*S,2*S)-2-(2-chlorophenyl)-4,4-dimethylcyclohexane-1-carbonyl)-4-fluoro-N-((R,Z)-4-(methylsulfonyl)but-3-en-2-yl)piperidine-4-carboxamide] | 430 | 67 |  |  | 86.7 | 
C[C@H](/C=C\S(C)(=O)=O)NC(=O)[C@@]1(F)CCCN(C(=O)[C@H]2CN(CC(F)(F)F)C[C@H]2c2cccc(F)c2F)CC1 (single isomer, unassigned) [Compound 173, (R)-1-((3*R,4*R)-4-(2,3-difluorophenyl)-1-(2,2,2-trifluoroethyl)pyrrolidine-3-carbonyl)-4-fluoro-N-((R,Z)-4-(methylsulfonyl)but-3-en-2-yl)azepane-4-carboxamide] | 540 | 464 |  |  | 85.5 | 
C[C@H]1C[C@](F)(C(=O)N[C@@H]2C=CS(=O)(=O)C2)CCN1C(=O)[C@H]1CN(CC(F)(F)F)C[C@H]1c1cccc(F)c1Cl (single isomer, unassigned) [Compound 175, (2*S,4*S)-1-((3*R,4*R)-4-(2-chloro-3-fluorophenyl)-1-(2,2,2-trifluoroethyl)pyrrolidine-3-carbonyl)-N-((R)-1,1-dioxido-2,3-dihydrothiophen-3-yl)-4-fluoro-2-methylpiperidine-4-carboxamide] | 620 | 151 |  |  | 75.6 | 
COc1ccc(S(=O)(=O)N2CC[C@@](F)(C(=O)N[C@H](C)/C=C/C(=O)N3CC(F)(F)C3)C[C@H]2C)c(-c2ccccc2Cl)c1 [Compound 151, (2R,4S)-1-((2′-chloro-5-methoxy-[1,1′-biphenyl]-2-yl)sulfonyl)-N-((R,E)-5-(3,3-difluoroazetidin-1-yl)-5-oxopent-3-en-2-yl)-4-fluoro-2-methylpiperidine-4-carboxamide] | 226 |  | 200 | 284 |  | 100
COc1cc(-c2ccccc2Cl)c(S(=O)(=O)N2CCC(F)(C(=O)N[C@@H](C)/C=C\S(C)(=O)=O)CC2)cn1 [Compound 187, (S,Z)-1-((4-(2-chlorophenyl)-6-methoxypyridin-3-yl)sulfonyl)-4-fluoro-N-(4-(methylsulfonyl)but-3-en-2-yl)piperidine-4-carboxamide] |  |  | 68.1 | 152 |  | 70.1
C[C@H](/C=C\S(C)(=O)=O)NC(=O)C1(F)CCN(S(=O)(=O)c2cnc(C(F)(F)F)cc2-c2ccccc2Cl)CC1 [Compound 207, (R,Z)-1-((4-(2-chlorophenyl)-6-(trifluoromethyl)pyridin-3-yl)sulfonyl)-4-fluoro-N-(4-(methylsulfonyl)but-3-en-2-yl)piperidine-4-carboxamide] | 184 |  | 150 | 803 |  | 75.2
CCOc1ccc(S(=O)(=O)N2CC[C@@](F)(C(=O)N[C@H](C)/C=C\S(C)(=O)=O)C[C@H]2C)c(-c2ccccc2Cl)c1 [Compound 299, (2R,4S)-1-((2′-chloro-5-ethoxy-[1,1′-biphenyl]-2-yl)sulfonyl)-4-fluoro-2-methyl-N-((R,Z)-4-(methylsulfonyl)but-3-en-2-yl)piperidine-4-carboxamide] | 210 |  |  | 146 |  | 99.6
[2H]C([2H])([2H])Oc1ccc(S(=O)(=O)N2CC[C@@](F)(C(=O)N[C@H](C)/C=C/C(=O)N3CC(F)(F)C3)C[C@H]2C)c(-c2ccccc2Cl)c1 [Compound 300, (2R,4S)-1-((2′-chloro-5-(methoxy-d3)-[1,1′-biphenyl]-2-yl)sulfonyl)-N-((R,E)-5-(3,3-difluoroazetidin-1-yl)-5-oxopent-3-en-2-yl)-4-fluoro-2-methylpiperidine-4-carboxamide] | 310 |  |  | 418 |  | 94.2
C[C@H](/C=C\S(C)(=O)=O)NC(=O)[C@@]1(F)CCCN(C(=O)[C@H]2CN(C3CC3)C[C@H]2c2ccccc2Cl)CC1 [Compound 303, (R)-1-((3R,4R)-4-(2-chlorophenyl)-1-cyclopropylpyrrolidine-3-carbonyl)-4-fluoro-N-((R,Z)-4-(methylsulfonyl)but-3-en-2-yl)azepane-4-carboxamide] | 557 |  |  | 243 |  | 102

The remaining compounds from weak to strong by IC50 [1], led by results:

IC50 [1] [nM] | IC50 [2] [nM] | IC50 [3] [nM] | IC50 [4] [nM] | Compound | Emax [2] [%] | Emax [4] [%]
177 |  | 150 | 348 | C[C@H](/C=C/C(=O)N1CC(F)(F)C1)NC(=O)C1(F)CCN(S(=O)(=O)c2ccc(C(F)(F)F)cc2-c2ccccc2Cl)CC1 [Compound 134, 1-[2-(2-chlorophenyl)-4-(trifluoromethyl)phenyl]sulfonyl-4-fluoro-N—[(E,1R)-4-(3,3-difluoroazetidin-1-yl)-1-methyl-4-oxo-but-2-enyl]piperidine-4-carboxamide] |  | 96.3
165 |  | 140 | 330 | C[C@H](/C=C\S(C)(=O)=O)NC(=O)C1(F)CCN(S(=O)(=O)c2ccc(C#N)cc2-c2ccccc2Cl)CC1 [Compound 35, (R,Z)-1-((2′-chloro-5-cyano-[1,1′-biphenyl]-2-yl)sulfonyl)-4-fluoro-N-(4-(methylsulfonyl)but-3-en-2-yl)piperidine-4-carboxamide] |  | 103
158 |  | 133 | 409 | C[C@H](/C=C\S(C)(=O)=O)NC(=O)C1(F)CCN(S(=O)(=O)c2ccc(C(F)(F)F)cc2-c2ccccc2Cl)CC1 [Compound 33, (R,Z)-1-((2′-chloro-5-(trifluoromethyl)-[1,1′-biphenyl]-2-yl)sulfonyl)-4-fluoro-N-(4-(methylsulfonyl)but-3-en-2-yl)piperidine-4-carboxamide] |  | 86.2
85 | 64.6 |  |  | C[C@H](/C=C\S(C)(=O)=O)NC(=O)[C@@]1(F)CCCN(C(=O)[C@H]2CN(CC3(F)CC3)C[C@H]2c2c(F)cccc2Cl)CC1 (single isomer, unassigned) [Compound 184, (R)-1-((3*R,4*R)-4-(2-chloro-6-fluorophenyl)-1-((1-fluorocyclopropyl)methyl)pyrrolidine-3-carbonyl)-4-fluoro-N-((R,Z)-4-(methylsulfonyl)but-3-en-2-yl)azepane-4-carboxamide] | 102 | 
85 |  |  | 77.1 | C[C@H](/C=C\S(C)(=O)=O)NC(=O)[C@@]1(F)CCCN(S(=O)(=O)c2ccc(C(F)(F)F)cc2-c2ccccc2Cl)CC1 [Compound 310, (R)-1-((2′-chloro-5-(trifluoromethyl)-[1,1′-biphenyl]-2-yl)sulfonyl)-4-fluoro-N—((R,Z)-4-(methylsulfonyl)but-3-en-2-yl)azepane-4-carboxamide] |  | 
80 |  |  | 140 | COc1ccc(S(=O)(=O)N2CCC[C@](F)(C(=O)N[C@H](C)/C=C\S(C)(=O)=O)CC2)c(-c2ccccc2Cl)c1 [Compound 312, (R)-1-((2′-chloro-5-methoxy-[1,1′-biphenyl]-2-yl)sulfonyl)-4-fluoro-N-((R,Z)-4-(methylsulfonyl)but-3-en-2-yl)azepane-4-carboxamide] |  | 
78 | 56.6 |  |  | C[C@H](/C=C\S(C)(=O)=O)NC(=O)[C@@]1(F)CCCN(C(=O)[C@H]2CN(CC(C)(F)F)C[C@H]2c2c(F)cccc2Cl)CC1 (single isomer, unassigned) [Compound 183] | 93.2 | 
77 |  |  | 117 | [2H]C([2H])([2H])Oc1ccc(S(=O)(=O)N2CC[C@@](F)(C(=O)N[C@H](C)/C=C\S(C)(=O)=O)C[C@H]2C)c(-c2ccccc2Cl)c1 [Compound 301, (2R,4S)-1-((2′-chloro-5-(methoxy-d3)-[1,1′-biphenyl]-2-yl)sulfonyl)-4-fluoro-2-methyl-N-((R,Z)-4-(methylsulfonyl)but-3-en-2-yl)piperidine-4-carboxamide] |  | 99.8
75 |  | 50 | 82.4 | COc1ccc(S(=O)(=O)N2CC[C@@](F)(C(=O)N[C@H](C)/C=C\S(C)(=O)=O)C[C@H]2C)c(-c2ccccc2Cl)c1 [Compound 141, (2R,4S)-1-[2-(2-chlorophenyl)-4-methoxy-phenyl]sulfonyl-4-fluoro-2-methyl-N—[(Z,1R)-1-methyl-3-methylsulfonyl-allyl]piperidine-4-carboxamide] |  | 102

Source: US20250026721A1, “COMPOUNDS AND METHODS FOR MODULATING RAS-PI3K” (Vividion Therapeutics, Inc., priority 2023, published 2025)
